Target: Xaa-Pro dipeptidase (Sus scrofa)
Assay: Inhibitory activity against porcine kidney prolidase

Ki: 270 nM
SMILES: NCC(=O)[C@@H]1CCC[C@H]1C(=O)O [2-((1R,2R)-2-Carboxy-cyclopentyl)-2-oxo-ethyl-ammonium; chloride]

— BindingDB's records for doi:10.1016/0960-894X(95)00494-E (1995)
